Test results published in patent publication US10214502B2, “Method of inhibiting apolipoprotein-E expression while increasing expression of at least one of LDL-receptor protein or AbcA1 protein comprising administering a small compound” (California State University, Fresno, priority 2016, dated 2019).
“Also recorded” adds a separate entry of the source.

Columns and labels:
apoE3 = test: ELISA of apoE3 levels in conditioned media of compound-treated mouse cortical astrocyte cells; format: cell-based; details: for ApoE3 Levels in Cell Media, Average of Three Tests / ApoE3 Levels in Cell Media, Test 1 / ApoE3 Levels in Cell Media, Test 2 / ApoE3 Levels in Cell Media, Test 3: 10 μM compound, 24 hours, normalized to cell protein, relative to DMSO treated cells
Procedure: ApoE inhibition can be readily determined by any one of several assays and techniques known to those of ordinary skill in the art, including the enzyme-linked immunosorbant assay (ELISA). In the experimental results shown in Table 2 and FIG. 5, the ELISA assay was carried out on cortical astrocyte cells from mice. Astrocyte cells produce apoE, LDLR and AbcA1 proteins.
The experiments involved treating mouse cortical astrocyte cells with the claimed compounds at 10 μM concentration for an incubation time of 24 hrs. DMSO solvent was used as a negative control, because the compounds were dissolved in DMSO when applied to the cells.
The ELISA technique involves immobilizing an apoE-specific capture antibody to a 96-well plate, addition of sample (conditioned medium from mouse cortical astrocyte cells treated with the compound for 24 hours), and detection of the bound apoE using a second apoE-specific biotinylated antibody and streptavidin-HRP.
The Mabtech ELISA kit detects the presence of the three apoE isoforms: apoE2, apoE3, and apoE4.
To obtain the data shown in Table 2 and FIG. 5, the mouse cortical astrocyte cells were maintained in DMEM medium (Invitrogen) supplemented with 10 mM HEPES, 1 mM sodium pyruvate, 4.5 g/L glucose, 1% penicillin/streptomycin, and 10% fetal bovine growth serum (Invitrogen) at 37° C., with 5% CO2.
The cells (6×10^4 cells/24-well plate) were grown for 1 day in RPMI, followed by a 24 hour equilibration in serum-free Opti-MEM (Life Technologies). Treatments were carried out in triplicate with […] of fresh Opti-MEM containing 10 μM of compound or vehicle (0.1% DMSO) for 24 hours. […] ApoE concentration in the sample was calculated based on a standard curve derived using known amounts of purified apoE (from Biodesign).
The protein levels in the cells in the 24-well plates were measured using BCA Protein Assay Kit (from Pierce) and used to normalize the data. […] Sample apoE3 concentrations were represented relative to the DMSO treated cells.
The bars in FIG. 5 reflect the respective mean level apoE3 in the media for each compound with an indication of one […].

LDLR = test: SDS-PAGE/Western blot of LDLR expression in E3 astrocyte cells; format: cell-based, mouse; details: 10 μM, 24 hrs, Western blot, FIGS. 6 and 7
Procedure: Experiments were set up to test whether the claimed compounds increase LDLR expression in cortical astrocyte cells. The experiments involved treating mouse cortical astrocyte cells (E3 astrocyte cells) with the claimed compounds at 10 μM concentration for an incubation time of 24 hrs. DMSO solvent was used as a negative control, because the compounds were dissolved in DMSO when applied to the cells.
(§1) Western blot protocol and analysis was used to determine the LDLR levels in the E3 astrocyte cells. The western blot, otherwise known as a protein immunoblot, is a widely used analytical technique used to detect specific proteins in a cell culture or tissue sample. It uses gel electrophoresis to separate proteins by 3-D structure or denatured proteins by the length of the polypeptide. The proteins are then transferred to a membrane (typically nitrocellulose or PVDF), where they are stained with antibodies specific to the target protein. […] FIGS. 6 and 7 show gel images showing the effects the claimed compounds have on the target proteins. The protein bands show the presence and amount of each target protein present in the media from treated cells (compound numbers shown in the column headers).
(§2) In this case, after the 24-hour culture period, the treated cell media from cells treated with each respective compound were run by electrophoresis on polyacrylamide gel containing sodium dodecyl sulfate (SDS). The proteins from the SDS-PAGE process were then transferred to a nitrocellulose […] and stained.
(§3) FIGS. 6 and 7 show the presence of the following proteins in mouse E3 astrocyte cells: AbcA1, LDLR, ApoE3, and GAPDH. The GAPDH protein serves as the loading control protein for the western blot analysis. For each of the claimed compounds, FIGS. 6 and 7 show three samples run to determine the presence and amount of each indicated protein. The three samples for each treatment compound are indicated by the line under the compound number—the line stretches across three columns of protein bands.
(§4) The E3 astrocyte cells (1.6×10^4 cells/96-well plate) were grown for 1 day in RPMI, followed by a 24 hour equilibration in serum-free Opti-MEM (Life Technologies). Treatments were carried out in triplicate with […] of fresh Opti-MEM containing 10 μM of compound or vehicle (0.1% DMSO) for 24 hours. After the incubation time, the cellular media was collected as samples.
(§5) The collected samples were prepared for SDS-PAGE and western blot analysis by centrifuging and then extracting the protein by TCA-precipitation. The extracted protein was then resuspended in a Tris buffer.
(§6) After incubation and collection, the samples were run on a SDS-polyacrylamide gel (10% SDS). The SDS-polyacrylamide gel comprises the following:
(§7) Each sample was prepared to run on the SDS-polyacrylamide gel. About 20 μL of each sample was prepared to be run in the gel. The samples were prepared comprising the following:
(§8) The SDS-PAGE process was run with SDS-PAGE running buffer (Tris base, glycine, and 10% SDS) at 150 V until the dye front reached the bottom of the gel.
(§9) For the western blot portion of the analysis, the separated protein bands in the gel are then transferred to a nitrocellulose membrane by methods well known in the art. Following the western blot transfer, the blot is rinsed several times with dH2O to remove the salts. After blocking unreacted sites on the nitrocellulose membrane, all protein bands are stained with 0.5% Ponceau S (0.5 g Ponceau S, 1 ml Glacial HAc, 99 ml dH2O) and the target protein antibody.
(§10) The antibodies used for staining AbcA1 were obtained from Novus (NB100-2068). The antibodies used for staining LDLR were obtained from MBL International (JM-3839). The antibodies used for staining intracellular apoE were obtained from Meridian Life Science (K74180B). The antibodies used for staining GAPDH were obtained from Santa Cruz (sc-25778).

AbcA1 = test: SDS-PAGE/Western blot of AbcA1 expression in E3 astrocyte cells; format: cell-based, mouse; details: 10 μM, 24 hrs, Western blot, FIGS. 6 and 7
Excerpt: as §1, §2, §3
AbcA1 protein plays a key role in regulating cholesterol in biological systems and therefore affects amyloid beta plaque formation. The goal of the biological screen (results shown in FIGS. 6 and 7) was to find compounds that prevent amyloid beta (Aβ) plaque formation, one of the deleterious causes of Alzheimer's Disease.
as §4, §5, §6, §7, §8, §9, §10

| SMILES | ApoE3 Levels in Cell Media, Average of Three Tests (apoE3) | ApoE3 Levels in Cell Media, Test 1 (apoE3) | ApoE3 Levels in Cell Media, Test 2 (apoE3) | ApoE3 Levels in Cell Media, Test 3 (apoE3) | LDLR expression (amount of LDLR protein) compared to the DMSO control (LDLR) | AbcA1 expression compared to the DMSO control (AbcA1) | apoE (apoE3) expression compared to the control DMSO, in words (apoE3; 10 μM, 24 hrs, ELISA of media) |
| --- | --- | --- | --- | --- | --- | --- | --- |
| CCCCN(CCCC)Cc1ccc2ccccc2c1 [Compound 139] | 74.779 % of the DMSO control | 67.21 % of the DMSO control | 81.69 % of the DMSO control | 75.44 % of the DMSO control | increased | decreases AbcA1 expression significantly; also recorded: decrease |  |
| CCN(CC)S(=O)(=O)c1ccc2ccccc2c1 [Compound 129] | 81.14 % of the DMSO control | 80.4063 % of the DMSO control | 82.82 % of the DMSO control | 80.19 % of the DMSO control |  | decrease |  |
| O=S(=O)(Nc1ccc(Br)cc1)c1ccc2ccccc2c1 [Compound 103] | 109.1222 % of the DMSO control | 84.78 % of the DMSO control | 113.1319 % of the DMSO control | 129.4577 % of the DMSO control | increased | increase |  |
| O=S(=O)(NC1CCCCC1)c1ccc(-c2ccccc2)cc1 [Compound 136] | 89.73 % of the DMSO control | 89.58 % of the DMSO control | 91.2 % of the DMSO control | 88.41 % of the DMSO control | increase |  |  |
| c1ccc(C(c2ccccc2)(c2ccc3ccccc3c2)N2CCOCC2)cc1 [Triarylmethyl Amine Compound No. 38, reference compound] | 79.07 % of the DMSO control | 76.4862 % of the DMSO control | 92.35 % of the DMSO control | 68.38 % of the DMSO control |  | significantly decrease or inhibit; also recorded: decrease | effectively decrease |
| O=S(=O)(c1ccc2ccccc2c1)N1CCCC1 [Compound 96] | 118.6531 % of the DMSO control | 104.9618 % of the DMSO control | 132.594 % of the DMSO control | 118.4035 % of the DMSO control | increase |  |  |
| CCC(C)NC(=O)c1ccc2ccccc2c1 (centres unmarked) [Compound 88, naphthalene-2-carboxylic acid sec-butylamide] | 100.678 % of the DMSO control | 104.1856 % of the DMSO control | 95.94 % of the DMSO control | 101.9038 % of the DMSO control | increase |  |  |
| O=S(=O)(c1ccc2ccccc2c1)N1CCOCC1 [Compound 95] | 96.13 % of the DMSO control | 86.87 % of the DMSO control | 92.02 % of the DMSO control | 109.5 % of the DMSO control | increase |  |  |
| O=C(Nc1ccccc1)c1ccc2ccccc2c1 [Compound 98] | 76.25 % of the DMSO control | 74.22 % of the DMSO control | 79 % of the DMSO control | 75.5362 % of the DMSO control |  | decrease |  |
| CC(C)CNC(=O)c1ccc2ccccc2c1 [Compound 89] | 129.8502 % of the DMSO control | 110.4906 % of the DMSO control | 131.1414 % of the DMSO control | 147.9187 % of the DMSO control | increase |  |  |
| O=S(=O)(c1ccc2ccccc2c1)N1CCCCC1 [Compound 97] | 86.86 % of the DMSO control | 90.22 % of the DMSO control | 90.28 % of the DMSO control | 80.08 % of the DMSO control | increase |  |  |
| CC(C)CNS(=O)(=O)c1ccc(-c2ccccc2)cc1 [Compound 133] | 73.18 % of the DMSO control | 81.61 % of the DMSO control | 72.54 % of the DMSO control | 65.4 % of the DMSO control |  | decrease |  |
| CC(NS(=O)(=O)c1ccc(-c2ccccc2)cc1)c1ccccc1 (centres unmarked) [Compound 137] | 88.63 % of the DMSO control | 79.41 % of the DMSO control | 86.65 % of the DMSO control | 99.83 % of the DMSO control | increase |  |  |
